Measured values from publication PMC11852920, “The Diacylglycerol Acyltransferase 3 of Chlamydomonas reinhardtii Is a Disordered Protein Capable of Binding to Lipids Derived from Chloroplasts” (Biomolecules, 2025).

Target: T1, DGAT3 (Chlamydomonas reinhardtii, UniProt A8IMA8)
T1 construct: gene CHLRE_06g310200v5; Trp216, Trp218, Tyr294 (only Trp/Tyr residues); 18 Asp, 22 Glu, 6 Phe, 9 His; chloroplast protein
T1 sequence (A8IMA8 2-346): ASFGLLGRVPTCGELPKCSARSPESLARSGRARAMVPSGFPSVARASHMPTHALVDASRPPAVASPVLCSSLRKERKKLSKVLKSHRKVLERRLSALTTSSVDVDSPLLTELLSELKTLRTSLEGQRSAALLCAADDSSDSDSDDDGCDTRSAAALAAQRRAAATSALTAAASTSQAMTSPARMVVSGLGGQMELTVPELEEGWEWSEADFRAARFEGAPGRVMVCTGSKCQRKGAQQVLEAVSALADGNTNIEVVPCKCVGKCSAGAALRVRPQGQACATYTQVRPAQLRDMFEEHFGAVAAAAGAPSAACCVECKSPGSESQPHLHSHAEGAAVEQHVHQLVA
Assay: steady-state intrinsic Trp fluorescence anisotropy titration with lipid vesicles
Format: binding
Conditions: partition coefficient (protein between water and lipid phase), not a Kd; anionic POPG vesicles (bilayer, not monomeric lipid); 5 uM protein, 50 mM Tris, 100 mM NaCl, 5 mM TCEP, pH 8; 25 °C

With `CCCCCCCC/C=C\CCCCCCCC(=O)O[C@H](COC(=O)CCCCCCCCCCCCCCC)COP(=O)(O)OCC(O)CO` (mixture of isomers) [POPG, 1-palmitoyl-2-oleoyl-sn-glycero-3-phospho-(1′-rac-glycerol)] the Kp was ~ 40,000.
